Test results as given in patent US12398120B2, “Substituted hydantoinamides as ADAMTS7 antagonists” (BAYER AKTIENGESELLSCHAFT, priority 2019, dated 2025).

biological target: ADAMTS4 (Homo sapiens (Human), UniProt O75173); experiment: Selectivity assay for ADAMTS-7 modulators: ADAMTS4 (FRET substrate); format: biochemical; conditions: ADAMTS4 (R&D 4307-AD) 50 nM, substrate Dabcyl-EEVKAKVQPY-Glu(Edans)-NH2 1 μM, 120 min, 32° C.
Method in brief: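 Human ADAMTS4 with compound in DMSO, or DMSO control; reaction started by adding FRET substrate in reaction buffer. Fluorescence increase measured at substrate-specific wavelengths. IC50 derived from % inhibition of enzyme activity versus compound concentration.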

ADAMTS4, sequence (O75173 213-685): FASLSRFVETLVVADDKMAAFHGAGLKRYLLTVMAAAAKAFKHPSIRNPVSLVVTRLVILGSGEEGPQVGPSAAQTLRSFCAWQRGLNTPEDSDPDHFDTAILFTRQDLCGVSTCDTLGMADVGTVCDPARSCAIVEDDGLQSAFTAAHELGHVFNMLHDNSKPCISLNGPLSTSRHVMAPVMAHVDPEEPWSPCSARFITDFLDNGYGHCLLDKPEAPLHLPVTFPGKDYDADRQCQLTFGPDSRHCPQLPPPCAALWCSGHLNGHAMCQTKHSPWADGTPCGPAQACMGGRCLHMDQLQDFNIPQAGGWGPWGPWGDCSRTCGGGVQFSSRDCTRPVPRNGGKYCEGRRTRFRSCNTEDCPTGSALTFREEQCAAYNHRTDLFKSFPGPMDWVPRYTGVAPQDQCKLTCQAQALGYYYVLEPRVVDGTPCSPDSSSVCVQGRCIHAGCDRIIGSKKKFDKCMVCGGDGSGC

Q: With Cc1nsnc1C1(CNC(=O)c2ccccc2-c2ccc(C(F)(F)F)cc2)NC(=O)NC1=O (stereo not drawn) [Example 85, Ent-N-{[4-(4-Methyl-1,2,5-Thiadiazol-3-Yl)-2,5-Dioxoimidazolidin-4-Yl]Methyl}-4′-(Trifluoromethyl)[Biphenyl]-2-Carboxamide] as the compound, how does the IC50 read?
A: 13 µM

Q: For Cc1ccc(-c2ccc(F)cc2C(=O)NC[C@@]2(C3CC3)NC(=O)NC2=O)cc1 [Example 219, N-{[(4R)-4-Cyclopropyl-2,5-Dioxoimidazolidin-4-Yl]Methyl}-4-Fluoro-4-Methyl[Biphenyl]-2-Carboxamide], which IC50 is on record?
A: 2.8 µM

Q: Cc1cnoc1C1(CNC(=O)c2ccccc2-c2ccc(C(F)(F)F)nc2)NC(=O)NC1=O (racemic) [Example 77, Rac-N-{[4-(4-Methyl-1,2-Oxazol-5-Yl)-2,5-Dioxoimidazolidin-4-Yl]Methyl}-2-[6-(Trifluoromethyl)Pyridin-3-Yl]Benzamide] was tested. Which IC50 did it give?
A: 40 µM

Q: O=C1NC(=O)C(CNC(=O)c2ccccc2-c2ccc(C(F)(F)F)nc2)(c2ccnn2C2CC2)N1 (racemic) [Example 40, Rac-N-{[4-(1-Cyclopropyl-1H-Pyrazol-5-Yl)-2,5-Dioxoimidazolidin-4-Yl]Methyl}-2-[6-(Trifluoromethyl)Pyridin-3-Yl]Benzamide] was tested. Which IC50 did it give?
A: 21 µM

Q: For O=C1NC(=O)C(CNC(=O)c2ccccc2-c2ccc(C(F)(F)F)nc2)(C2CCOCC2)N1 (racemic) [Example 36, Rac-N-{[2,5-Dioxo-4-(Tetrahydro-2H-Pyran-4-Yl)Imidazolidin-4-Yl]Methyl}-2-[6-(Trifluoromethyl)Pyridin-3-Yl]Benzamide], which IC50 is on record?
A: > 50 µM

Q: Which IC50 does the source give for Cc1nscc1C1(CNC(=O)c2ccccc2-c2ccc(C(F)(F)F)nc2)NC(=O)NC1=O (stereo not drawn) [Example 64, Ent-N-{[4-(3-Methyl-1,2-Thiazol-4-Yl)-2,5-Dioxoimidazolidin-4-Yl]Methyl}-2-[6-(Trifluoromethyl)Pyridin-3-Yl]Benzamide] here?
A: 12 µM

Q: For O=C1NC(=O)C(CNC(=O)c2ccc(F)cc2-c2ccc(C(F)(F)F)cc2)(c2ncsc2C(F)(F)F)N1 (racemic) [Example 267, Rac-N-({2,5-Dioxo-4-[5-(Trifluoromethyl)-1,3-Thiazol-4-Yl]Imidazolidin-4-Yl}Methyl)-5-Fluoro-4′-(Trifluoromethyl)[Biphenyl]-2-Carboxamide], which IC50 is on record?
A: 19 µM

Q: Which IC50 does the source give for Cc1scnc1C1(CNC(=O)c2ccccc2-c2ccc(C(F)(F)F)cc2)NC(=O)NC1=O (racemic) [Example 1, Rac-N-{[4-(5-Methyl-1,3-Thiazol-4-Yl)-2,5-Dioxoimidazolidin-4-Yl]Methyl}-4′-(Trifluoromethyl)[Biphenyl]-2-Carboxamide] here?
A: 6.5 µM

Q: Which IC50 does the source give for O=C1NC(=O)[C@](CNC(=O)c2ccc(F)cc2-c2ccc(Cl)cc2)(C2CC2)N1 [Example 126, 4′-Chloro-N-{[(4R)-4-Cyclopropyl-2,5-Dioxoimidazolidin-4-Yl]Methyl}-5-Fluoro[Biphenyl]-2-Carboxamide] here?
A: 11 µM

Q: How did the IC50 turn out when Cc1scnc1C1(CNC(=O)c2ccccc2-c2ccc(S(C)(=O)=O)cc2)NC(=O)NC1=O (single isomer, unassigned; ent-4) [Example 175, Ent-4′-(Methylsulfonyl)-N-{[4-(5-Methyl-1,3-Thiazol-4-Yl)-2,5-Dioxoimidazolidin-4-Yl]Methyl}[Biphenyl]-2-Carboxamide] was run?
A: 4.9 µM
